With `Clc1ccnc2[nH]c3ccc(Br)cc3c12` the melting point was greater than 220 °C. Compound `Sc1nc2ccccc2n1CCCN1CCN(C(c2ccccc2)c2ccccc2)CC1` has a melting point of 182 °C. For `Cc1sc2c(Br)c3ccccc3c(-c3cc(Br)c(O)c(Br)c3)c2c1C`, the melting point was 172 to 174 °C. In the case of `CCOC(=O)c1cn2c(-c3nn(C)c(OC(F)F)c3Cl)c(F)cc(Cl)c2n1`, the melting point is reported as 140 to 143 °C. Compound `CCOC(=O)c1cc(OC)c2c(c1)C(=O)c1c(F)ccc(OC)c1C2=O` has a melting point of 201 to 203 °C. `CN(C)C(=O)Nc1nc2ccccc2s1` showed a melting point of 214 to 216 °C. In the case of `O=C1CC2(CCCC2)CC(=O)N1CCCCN1CCN(c2noc3cc(Cl)ccc23)CC1`, the melting point is reported as 128 °C. Compound `CC[C@@H](c1ccccc1)N(Cc1ccc(C(=O)OC)cc1)S(=O)(=O)c1ccc(Cl)cc1` has a melting point of 108 to 110 °C. For `C[C@H]1COc2c(C#N)cccc2C(=O)N(C[C@@H](CCN)c2ccc(Cl)c(Cl)c2)C1`, the melting point was 82 to 128 °C. In the case of `COc1ccc2c(c1)CCc1c(C#N)cccc1S2`, the melting point is reported as 129 to 130 °C. For `CCC(OC(C)=O)c1ccc(Cl)c2nc3n(c12)CCCN3c1cnc(N(C)C)cc1C` (stereo unspecified), the melting point was 159 to 160 °C. `CC(C)Nc1nc2c(F)c(F)c(Cl)cc2[nH]1` gave a melting point of 175 to 178 °C. `CN1CC(=O)NC1=NC(=O)Nc1cccc([N+](=O)[O-])c1` showed a melting point of 182 to 188 °C. Compound `N#CCCCCCn1nc(-c2c(-c3ccccc3)nn3ccccc23)ccc1=O` has a melting point of 120 to 122 °C. For `CCOC(=O)c1ccc(O)c(C#N)c1`, the melting point was 192 to 193 °C. With `COc1ccc2cnc(N)nc2c1C(C)C` the melting point was 112 to 113 °C. `CC(=O)OC1CC(n2cc(C=CBr)c(=O)[nH]c2=O)OC1CC#N` (stereo unspecified) gave a melting point of 96 °C. In the case of `CN(C)C1(c2ccccc2)CCC(CNC(=O)N2CCC(c3c[nH]c4ccccc34)CC2)CC1` (stereo unspecified), the melting point is reported as 104 to 107 °C. For `CC(C)C(C)CCC(C)C1CCC2C3CCC4CCCCC4(C)C3CCC12C` (stereo unspecified), the melting point was 136 to 137 °C. For `N#CC(C#N)=C1N(CCCN2CCOCC2)CCN1C1CCN(C2CC2)CC1`, the melting point was 104 to 106 °C. For `C=C(C)CO[C@H]1[C@H](C)OC(=O)[C@@H](NC(=O)c2nccc(OC)c2OCOC(C)=O)COC(=O)[C@@H]1Cc1ccccc1`, the melting point was 102 to 104 °C. `O=Cc1cn(-c2c(Cl)cc(C(F)(F)F)cc2Cl)c2ccccc12` gave a melting point of 167 to 169 °C. For `O=C(O)CN(Cc1ccc(OCc2ccc(F)cc2)cc1)C(=O)c1cn2cc(-c3ccc(Cl)cc3)ccc2n1`, the melting point was 206 °C. `COC(=O)CCCc1cc2nc(Cl)ccc2n1S(=O)(=O)c1cccc(Br)c1` gave a melting point of 109 °C. With `N=C(N)c1ccc2cc(OC(=O)C3CCC(CNC(=O)OCc4ccccc4)CC3)ccc2c1` (stereo unspecified) the melting point was 167 to 170 °C. With `COc1ccc(CNc2cc(-c3cc4cc(F)c(F)cc4[nH]3)ccc2OC)cc1` the melting point was 173 to 175 °C. Compound `OCCCOc1ccc(-n2nc(-c3ccccc3)c3cccnc32)cc1` has a melting point of 135 to 138 °C. In the case of `Cc1[nH]n(Cc2cc([N+](=O)[O-])ccc2Cl)c2nc(-c3ccncc3)nc(=O)c1-2`, the melting point is reported as 290 to 291 °C. For `CCc1nn(CCO)c(CC)c1Cc1c(F)cccc1F`, the melting point was 70 to 71 °C. For `CC(C)(CC1CCCC1)NC(=O)CN1C(=O)c2ccccc2C1=O`, the melting point was 159 to 160 °C. In the case of `Oc1ccc(-c2nc(-c3ccccc3)nc3ccccc23)c(O)c1`, the melting point is reported as 178 to 180 °C. In the case of `O=[N+]([O-])c1ccc(Br)cc1-c1cc(-c2cccc(Br)c2)no1`, the melting point is reported as 179 to 180 °C. `COC(=O)[C@H](CSC)Nc1ncccc1[N+](=O)[O-]` showed a melting point of 95 to 97 °C. Work on `CCCCCCCN(Cc1ccc(CCCCCC)cc1)C(Nc1ccc(C(F)(F)F)cc1)=C1C(=O)COC1=O` yielded a melting point of 94 to 98 °C. Work on `O=C1NC(=O)C(=Cc2ccc(C(=O)CCc3ccccc3)cn2)S1` yielded a melting point greater than 250 °C. With `Cc1ccccc1Cc1cccnn1` the melting point was 88 to 89 °C. Compound `O=C1Nc2cc(-c3ccco3)ccc2C2CCCC12F` (stereo unspecified) has a melting point of 203 to 206 °C. In the case of `CCOC(=O)/C=C/C=C(c1cccc([N+](=O)[O-])c1)c1cccc([N+](=O)[O-])c1`, the melting point is reported as 105 to 106 °C. Work on `O=C1COc2cc(NC(=O)C(=O)O)ccc2N1` yielded a melting point of 232 to 236 °C. With `O/N=C1\CCCc2c1c1ccccc1n2-c1ccc(OCc2ccccc2)cc1` the melting point was 241 to 243 °C. Compound `Nc1ncnc2c1c(-c1cn[nH]c1)nn2Cc1oc2ccccc2c(=O)c1-c1ccccc1` has a melting point of 235 to 237 °C. `O=C(c1cccc2cc[nH]c12)N1CCN(c2cccc(C(F)(F)F)c2)CC1` gave a melting point of 147 to 151 °C. For `CN(C1=CC(=O)CC1)[C@@H]1c2cc(C#N)ccc2OC(C)(C)[C@H]1O` (relative stereo), the melting point was 271 to 274 °C. Compound `COc1cn(-c2cc3c(cc2F)OC(F)(F)O3)nc(-c2ccnn2-c2ccccc2)c1=O` has a melting point of 200 to 202 °C. With `COC(=O)[C@@H]1C(=O)N(C)c2ccccc2C[C@H]1c1ccc2c(c1)OCO2` (racemic) the melting point was 125 to 127 °C. `CC1COP(=O)(Cc2ccc([N+](=O)[O-])cc2)OC1` (stereo unspecified) showed a melting point of 170 to 171 °C. In the case of `COc1cc(OC)c2c(=O)[nH]c(-c3ccc(OC)c(-c4ccc(S(C)(=O)=O)cc4)n3)nc2c1`, the melting point is reported as 279 to 281 °C. For `Cc1nc2ccc(S(=O)(=O)n3c(COC(C)C(=O)O)cc4cc(C(F)(F)F)ccc43)cc2s1` (stereo unspecified), the melting point was 146 to 148 °C. In the case of `N#Cc1c(N)oc2c(-c3ccccc3)cccc2c1=O`, the melting point is reported as 217 to 219 °C. In the case of `NC[C@@H]1CN(c2nc3c(cc2F)c(=O)c(C(=O)O)cn3C2CC2)C[C@@H]1F` (relative stereo), the melting point is reported as 217 to 218 °C. For `O=C(O)c1cnccc1Cc1cc(Cl)ccc1F`, the melting point was 174 to 176 °C. Work on `O=C(O)[C@H](Cc1ccccc1)NS(=O)(=O)c1ccc(N2CCN(c3ccccc3)CC2)cc1` yielded a melting point of 192 to 193 °C. With `CN(C)C=C(C#N)C(=O)c1ccsc1` the melting point was 118 to 119 °C. For `O=C(O)C=Cc1ccc(-c2ccc3ncnc(Nc4ccc(OCc5cccc(F)c5)c(Cl)c4)c3c2)s1`, the melting point was 252 °C. In the case of `O=C(O)CCc1cccc(CCc2nc(-c3ccccc3)c(-c3ccccc3)o2)c1`, the melting point is reported as 119 to 120 °C. `CCOC(=O)CC1CCc2c(oc3ccc(Cl)cc23)C1` (stereo unspecified) gave a melting point of 54 to 55.5 °C. `COc1ccc(-c2cc(C(=O)O)c(=O)n(Cc3ccc(F)cc3)n2)cc1F` showed a melting point of 222 to 224 °C. Work on `Oc1ccc(Nc2nccc(-c3cccnc3)n2)cc1` yielded a melting point of 223 to 225 °C. `NC(=O)NCc1ccc(CNC(=O)[C@@H](CCCNC(N)=N[N+](=O)[O-])NC(=O)OCc2ccc3ccccc3c2)cc1` showed a melting point of 155 to 160 °C. With `COC(=O)N1C2CC3CC(C2)CC1C3` the melting point was 88 °C. In the case of `C#Cc1c(-n2ccnc2)nc(C)nc1C(F)(F)F`, the melting point is reported as 121 to 122 °C. For `CCCCc1nc(Cl)c(CO)n1Cc1ccc(-c2ccccc2-c2nc(=O)o[nH]2)cc1`, the melting point was 202 to 205 °C. For `O=C1OCc2c1cc1ccc3c(c1c2-c1ccc(F)cc1)OCO3`, the melting point was 215 to 218 °C. `O=C1C(O)=C(c2ccc3ccccc3c2)C(=O)C(O)=C1c1ccc(Cl)cc1` showed a melting point of 302 to 303 °C. `COc1ccc(C(=O)CCC(=O)O)c2c1OC(C)(C)C2` showed a melting point of 125 to 126 °C. In the case of `Cc1ccc2c(c1)C=Cc1ncccc1C2c1cn(C)c(=O)[nH]c1=S` (stereo unspecified), the melting point is reported as 157 to 160 °C. Compound `N#Cc1c(N2CCc3ccccc3CC2)nc(=O)[nH]c1OCC(F)(F)F` has a melting point of 196 to 198 °C. In the case of `CCOC(=O)c1cn(C2COC2)c2cc(F)c(F)c(OCc3ccccc3)c2c1=O`, the melting point is reported as 220 to 222 °C. In the case of `CN(C)CCCN1C(=O)c2cc(Cl)c(S(N)(=O)=O)cc2C1=O`, the melting point is reported as 192 to 194 °C. `COC(=O)Cc1cc2c(c([N+](=O)[O-])c1)N(C(C)=O)CC2` gave a melting point of 136 to 137 °C. Work on `COc1ccc(N2CCN(c3c(C)c(C)c4c(c3C)C(N3CCN(C)CC3)C(C)(C)O4)CC2)cc1` (stereo unspecified) yielded a melting point of 94 to 96 °C. `CS(=O)(=O)c1ccc(-c2[nH]c3ccc(Cl)cc3c2-c2ccc(Cl)cc2)cc1` gave a melting point of 281 to 283 °C. In the case of `CCC1C(C)=NN=C(c2ccccc2F)c2cc(OC)c(OC)cc21` (stereo unspecified), the melting point is reported as 86 to 88 °C. Work on `COc1ccccc1N1CCN(CCCn2c(=O)[nH]cc(C)c2=O)CC1` yielded a melting point of 168 to 170 °C. In the case of `COCCOCCOCCC1(CCOCCOCCOC)c2cc(C#Cc3ccc(C=O)s3)ccc2-c2ccc(C#Cc3ccc(C=O)s3)cc21`, the melting point is reported as 84 °C. In the case of `CCCCCN1CC[C@@H](c2ccccc2C(F)(F)F)[C@H](CO)C1` (racemic), the melting point is reported as 110 °C. In the case of `CCCn1c(-c2ccc(-n3ccnc3)cc2)cnc1[C@H](Cc1ccccn1)N(C=O)c1cc2cc(Br)ccc2o1`, the melting point is reported as 93 to 99 °C. `O=C(Nc1ccccc1S(=O)(=O)c1ccccc1)N[C@@H](Cc1ccc(NC(=O)c2ccc(Cl)nc2Cl)cc1)C(=O)O` gave a melting point of 207 °C. Work on `COc1cncnc1N1CCN(CCCc2c[nH]c3ccc(N(C)S(=O)(=O)C(F)(F)F)cc23)CC1` yielded a melting point greater than 230 °C. Compound `O=C(Oc1cccc(C(F)(F)F)c1)c1cc2cc(CCl)ccc2oc1=O` has a melting point of 162 to 163 °C. For `NC(=O)c1ccc2nccn2c1`, the melting point was 202 to 204 °C. For `COc1cccc(CN(Cc2cccc(OC)c2)c2ccc(-c3ccccc3)cc2)c1`, the melting point was 98 to 98.5 °C. In the case of `CN1C(=O)C(CC(=O)Nc2ccc(Cl)cc2)N=C(c2ccccc2)c2ccccc21` (stereo unspecified), the melting point is reported as 238 to 240 °C. `NCCCCn1cnc2c(N)nc3cccnc3c21` gave a melting point of 161 to 163 °C. In the case of `Cc1cn(C2(C(=O)N(C)C)CCC2)nc1-c1ccccc1`, the melting point is reported as 87 to 89 °C. Compound `O=Cc1sc2ccccc2c1-c1ccccc1` has a melting point of 86 to 89 °C. Compound `CNC(=O)ON=C(C)CN(c1c(C)cccc1C)S(C)(=O)=O` has a melting point of 130 to 134 °C. `Cc1cc(C(C)N(O)C(N)=O)ccc1OC(C)c1ccccc1` (stereo unspecified) gave a melting point of 133 to 135 °C. With `CN(C)C=Nc1ncc(I)c(Cl)n1` the melting point was 99 to 100 °C. In the case of `CCCCCCC[C@H](CC(=O)OC(C)(C)C)C(=O)N1C(=O)OC[C@@H]1C(C)C`, the melting point is reported as 49 to 51 °C. With `COC(=O)CCNc1ccc(CNC(=O)C2Cc3ccccc3N2S(=O)(=O)c2ccc(-c3cccc(C(F)(F)F)c3)cc2)cc1` (stereo unspecified) the melting point was 61 °C. In the case of `Fc1ccc(-c2cnc3nc(C(F)(F)F)cnn23)cc1-c1ccccn1`, the melting point is reported as 128 to 131 °C. Compound `COc1nc2cc(Cl)c(Cl)cc2nc1N1CCN(C)CC1` has a melting point of 92.6 to 99 °C. For `O=C(N[C@H](Cc1ccc(C(F)(F)F)cc1)[C@@H](O)c1ccc(F)cc1)c1cccc2c1C(=O)c1ccccc1-2` (racemic), the melting point was 185 to 186 °C. In the case of `Cc1ccc(-c2ccc(-c3nnnn3CCCCCCc3cccnc3)cc2)cc1C`, the melting point is reported as 101 to 103 °C. Compound `Cc1cn(CC(Br)C(=O)N(C)C)nc1-c1ccccc1` (stereo unspecified) has a melting point of 104 to 107 °C.
